In PubChem BioAssay AID248 (DTP/NCI, 2004):
“And” between values parts separate entries of the source, which are not always exact repeats. Equal entries are not always repeated. Inconclusive results and toxic doses are left out. No stated cut-off is given here; in the data, active means T/C of 150% or more; inactive means T/C below 125%.

System: L1210 leukemia ip in BDF1 mice, survival T/C
Test: NCI In Vivo Anticancer Drug Screen. Data for tumor model L1210 Leukemia (intraperitoneal) in B6D2F1 (BDF1) mice
Conditions: endpoint: mean survival time, higher = longer survival
In short: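 Value reflects the ratio of survival in compound-treated mice to survival in vehicle-treated controls, with both groups carrying the same transplanted tumor.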

Measured: T/C

Cc1ccc(Cl)cc1NC(=O)Nc1ccccc1
inactive: dose: 0.75 mg/kg/injection, schedule: Q01DX009 (ip), vehicle: Klucel (hydroxypropylcellulose) (HPC) 92 % of control | dose: 1.5 mg/kg/injection, schedule: Q01DX009 (ip), vehicle: Klucel (hydroxypropylcellulose) (HPC) 90 % of control | dose: 3.0 mg/kg/injection, schedule: Q01DX009 (ip), vehicle: Klucel (hydroxypropylcellulose) (HPC) 94 % of control and 90 % of control | dose: 100.0 mg/kg/injection, schedule: Q04DX003 (ip), vehicle: Klucel (hydroxypropylcellulose) (HPC) 90 % of control | dose: 200.0 mg/kg/injection, schedule: Q04DX003 (ip), vehicle: Klucel (hydroxypropylcellulose) (HPC) 90 % of control | dose: 400.0 mg/kg/injection, schedule: Q04DX003 (ip), vehicle: Klucel (hydroxypropylcellulose) (HPC) 87 % of control

COc1ccc2c(c1O)C1(CCN(C)C)CC(=O)CCC1C=C2 (centres undefined)
inactive: dose: 75.0 mg/kg/injection, schedule: Q01DX001 (ip), vehicle: saline 96 % of control | dose: 150.0 mg/kg/injection, schedule: Q01DX001 (ip), vehicle: saline 100 % of control | dose: 300.0 mg/kg/injection, schedule: Q01DX001 (ip), vehicle: saline 89 % of control

CCCC(=O)Oc1ccc2c(C)cc(=O)oc2c1
inactive: dose: 100.0 mg/kg/injection, schedule: Q01DX009 (ip), vehicle: saline with Tween-80 102 % of control | dose: 100.0 mg/kg/injection, schedule: Q04DX003 (ip), vehicle: saline with Tween-80 94 % of control | dose: 200.0 mg/kg/injection, schedule: Q01DX009 (ip), vehicle: saline with Tween-80 104 % of control | dose: 200.0 mg/kg/injection, schedule: Q04DX003 (ip), vehicle: saline with Tween-80 100 % of control | dose: 400.0 mg/kg/injection, schedule: Q01DX009 (ip), vehicle: saline with Tween-80 106 % of control | dose: 400.0 mg/kg/injection, schedule: Q04DX003 (ip), vehicle: saline with Tween-80 100 % of control

O=C1c2cccc3cccc(c23)C(=O)N1CCc1ccccn1
inactive: dose: 100.0 mg/kg/injection, schedule: Q01DX009 (ip), vehicle: Klucel (hydroxypropylcellulose) (HPC) 91 % of control | dose: 200.0 mg/kg/injection, schedule: Q01DX009 (ip), vehicle: Klucel (hydroxypropylcellulose) (HPC) 92 % of control

NC(=S)N/N=C/c1cccc(/C=N/NC(N)=S)c1
inactive: dose: 50.0 mg/kg/injection, schedule: Q01DX001 (ip), vehicle: saline 98 % of control | dose: 100.0 mg/kg/injection, schedule: Q01DX001 (ip), vehicle: saline 93 % of control | dose: 200.0 mg/kg/injection, schedule: Q01DX001 (ip), vehicle: saline 93 % of control | dose: 400.0 mg/kg/injection, schedule: Q01DX001 (ip), vehicle: saline 93 % of control

CCCC#CC(=O)OCC
inactive: dose: 100.0 mg/kg/injection, schedule: Q04DX002 (ip), vehicle: saline 91 % of control | dose: 200.0 mg/kg/injection, schedule: Q04DX002 (ip), vehicle: saline 97 % of control | dose: 400.0 mg/kg/injection, schedule: Q04DX002 (ip), vehicle: saline 89 % of control
